# According to PubChem BioAssay AID2060602 (Molecular Pharmacology Branch, DTP, NCI, 2025):
# System: 648629-189-R-J1-PDC complex spheroids viability
# Test: Anticancer human tumor 648629-189-R-J1-PDC patient-derived bladder carcinoma cell line growth inhibition [CLK]
# Conditions: for IC50: curve of first compound; for viability, T/C: stronger effect = lower value
# Description: A high-throughput screen of multi-cell type tumor spheroids was designed to identify active combinations of […] and targeted small molecules. Complex spheroids include a stromal component modeled by human endothelial cells (HUVEC) and fibroblasts modeled by human mesenchymal stem cells (MSCs). The concentration ranges selected for each drug and investigational agent were based upon clinically achievable concentrations if the clinical Cmax of the agent was known.
# Compounds. The drugs and investigational agents: cirtuvivint (SM08502; NSC835563), CC-671 (NSC850746), vemurafenib (NSC761431), tapotoclax (NSC804041), sotorasib (NSC818433), adagrasib (NSC831453), MRTX-1133 (NSC836407), BAY2416964 (NSC825713), copanlisib (NSC816437), inavolisib (NSC800729), abemaciclib (NSC768073), osimertinib (NSC779217), entinostat (NSC756642), eltanexor (KPT-8602, NSC794443), venetoclax (NSC766270), ceralasertib (NSC777638), bortezomib (NSC756655), olaparib (NSC753686), talazoparib (NSC767125), alisertib (NSC759677), peposertib (NSC802822), gemcitabine (NSC613327), 5-fluorouracil (NSC19893), SN-38 (NSC673596), oxaliplatin (NSC266046), paclitaxel (NSC125973), and doxorubicin (NSC123127), were obtained from the National Cancer Institute (NCI) Developmental Therapeutics Program Chemical Repository. The FDA-approved anticancer drug set is available from the Developmental Therapeutics Program at https://dtp.cancer.gov/organization/dscb/obtaining/available plates.htm. […] The stock solutions were prepared in dimethyl sulfoxide (DMSO, Sigma-Aldrich, St. Louis, MO, cat. D2650), except for the platinum complexes which were prepared in saline (Quality Biological, Gaithersburg, MD, cat. 114-055-101), at 800-fold the tested concentration and stored at -70 degrees C prior to their use. All drugs and investigational agents were tested over a range starting from a high concentration at or near the clinical Cmax and decreasing in half-log increments. If the clinical Cmax for an agent had not been determined, the highest concentration tested was 10 microM.
# Cell Culture. All cells were maintained in an incubator at 37 degrees C and 5% CO2 with 95% humidity. The PDC lines were cultured according to standard operating procedures established by the NCI PDMR. Briefly, all PDCs were thawed and cultured in Matrigel-coated flasks prepared with a working solution of 1X Ham's F-12 nutrient mix, without supplementation (Invitrogen, Waltham, MA, cat. 11765054), 100 U/mL penicillin-streptomycin (Invitrogen, cat. 15140122), and 2.5% Matrigel (Corning Inc., Corning, NY, cat. 354248) for the first three passages. The 947758-054-R-J2-PDC line was cultured in 6B/Colon 1A media, which includes advanced DMEM/F-12 (Thermo Fisher Scientific, cat. 12634028), 10 mM HEPES (Thermo Fisher Scientific, cat. 15630080), 1X GlutaMAX supplement (Thermo Fisher Scientific, cat. 35050061), 0.1 mg/mL primocin (InvivoGen, cat. ant-pm-2), 10% defined fetal bovine serum, heat inactivated (HyClone Laboratories Inc., cat. SH30070.03HI), 1.25 mM N-Acetyl-L-cysteine (Sigma-Aldrich, cat. A9165), 10 mM nicotinamide (Sigma-Aldrich, cat. N0636), 1X B-27 supplement (Thermo Fisher Scientific, cat. 17504044), 1X N-2 supplement (Thermo Fisher Scientific, cat. 17502048), and 10 microM Y-27632 dihydrochloride (Tocris Bioscience, cat. 1254). The 876862-298-R-J1-PDC was cultured in 6E media, which includes all 6B/Colon 1A media components plus 50% L-WRN conditioned media (ATCC, cat. CRL-3276), 50 ng/mL recombinant human EGF recombinant protein (hEGF; Thermo Fisher Scientific, cat. PHG0311), 10 ng/mL recombinant human fibroblast growth factor 10 (hGFG-10; PeproTech, cat. 100-26), 1 ng/mL recombinant human fibroblast growth factor 2 (hFGF-2; PeproTech, cat. 100-18B), and 1 µM prostaglandin E2 (PGE2; Tocris, cat. 2296). The 227483-062-R1-J1-PDC line was cultured in Panc media, containing all 6E components except hFGF-2, with the addition of 500 nM SB-431542 (Selleckchem, cat. S1067) and 10 nM gastrin (Tocris, cat. 3006). […]
# [1] = second compound 0.0316 µM, first compound 0.0316 µM
# [2] = second compound 0.0316 µM, first compound 0.1 µM
# [3] = second compound 0.0316 µM, first compound 0.316 µM
# [4] = second compound 0.0316 µM, first compound 1 µM
# [5] = second compound 0.0316 µM, first compound 3.16 µM
# [6] = second compound 0.0316 µM, first compound 10 µM
# [7] = second compound 0.1 µM, first compound 0.0316 µM
# [8] = second compound 0.1 µM, first compound 0.1 µM
# [9] = second compound 0.1 µM, first compound 0.316 µM
# [10] = second compound 0.1 µM, first compound 1 µM
# [11] = second compound 0.1 µM, first compound 3.16 µM
# [12] = second compound 0.1 µM, first compound 10 µM
# [13] = second compound 0.316 µM, first compound 0.0316 µM
# [14] = second compound 0.316 µM, first compound 0.1 µM
# [15] = second compound 0.316 µM, first compound 0.316 µM
# [16] = second compound 0.316 µM, first compound 1 µM
# [17] = second compound 0.316 µM, first compound 3.16 µM
# [18] = second compound 0.316 µM, first compound 10 µM
# [19] = second compound 1 µM, first compound 0.0316 µM
# [20] = second compound 1 µM, first compound 0.1 µM
# [21] = second compound 1 µM, first compound 0.316 µM
# [22] = second compound 1 µM, first compound 1 µM
# [23] = second compound 1 µM, first compound 3.16 µM
# [24] = second compound 1 µM, first compound 10 µM
# [25] = second compound 3.16 µM, first compound 0.0316 µM
# [26] = second compound 3.16 µM, first compound 0.1 µM
# [27] = second compound 3.16 µM, first compound 0.316 µM
# [28] = second compound 3.16 µM, first compound 1 µM
# [29] = second compound 3.16 µM, first compound 3.16 µM
# [30] = second compound 3.16 µM, first compound 10 µM
# [31] = second compound 10 µM, first compound 0.0316 µM
# [32] = second compound 10 µM, first compound 0.1 µM
# [33] = second compound 10 µM, first compound 0.316 µM
# [34] = second compound 10 µM, first compound 1 µM
# [35] = second compound 10 µM, first compound 3.16 µM
# [36] = second compound 10 µM, first compound 10 µM
# 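Throughout, for viability, T/C: drug exposure lasted seven days before viability readout; 100% = DMSO vehicle control wells.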
compound,measurement,setting,value
C#Cc1c(F)ccc2cc(O)cc(-c3ncc4c(N5CC6CCC(C5)N6)nc(OCC56CCCN5CC(F)C6)nc4c3F)c12 (stereo unspecified) + CN1CCN(c2cc(C(=O)Nc3cc4cc(-c5cnn(C)c5)ccc4cn3)ccn2)CC1,IC50,second compound 0.0316 µM,> 10000 nM
same,IC50,second compound 0.1 µM,> 10000 nM
same,IC50,second compound 0.316 µM,3620 nM
same,IC50,second compound 1 µM,< 31.6 nM
same,IC50,second compound 3.16 µM,< 31.6 nM
same,IC50,second compound 10 µM,< 31.6 nM
same,"viability, T/C",[1],122%
same,"viability, T/C",[2],113%
same,"viability, T/C",[3],103%
same,"viability, T/C",[4],122%
same,"viability, T/C",[5],118%
same,"viability, T/C",[6],105%
same,"viability, T/C",[7],102%
same,"viability, T/C",[8],104%
same,"viability, T/C",[9],99.1%
same,"viability, T/C",[10],117%
same,"viability, T/C",[11],99.5%
same,"viability, T/C",[12],98%
same,"viability, T/C",[13],50.1%
same,"viability, T/C",[14],49.4%
same,"viability, T/C",[15],50.3%
same,"viability, T/C",[16],54.3%
same,"viability, T/C",[17],53%
same,"viability, T/C",[18],39.9%
same,"viability, T/C",[19],0.6%
same,"viability, T/C",[20],0.88%
same,"viability, T/C",[21],0.41%
same,"viability, T/C",[22],0.41%
same,"viability, T/C",[23],0.51%
same,"viability, T/C",[24],0.64%
same,"viability, T/C",[25],0.13%
same,"viability, T/C",[26],0.2%
same,"viability, T/C",[27],0.15%
same,"viability, T/C",[28],0.14%
same,"viability, T/C",[29],0.15%
same,"viability, T/C",[30],0.15%
same,"viability, T/C",[31],0.36%
same,"viability, T/C",[32],0.22%
same,"viability, T/C",[33],0.15%
same,"viability, T/C",[34],0.19%
same,"viability, T/C",[35],0.2%
same,"viability, T/C",[36],0.16%
C=C(F)C(=O)N1CCN(c2nc(OCC3CCCN3C)nc3c2CCN(c2cccc4cccc(Cl)c24)C3)CC1CC#N (stereo unspecified) + CN1CCN(c2cc(C(=O)Nc3cc4cc(-c5cnn(C)c5)ccc4cn3)ccn2)CC1,IC50,second compound 0.0316 µM,5690 nM
same,IC50,second compound 0.1 µM,5430 nM
same,IC50,second compound 0.316 µM,< 31.6 nM
same,IC50,second compound 1 µM,< 31.6 nM
same,IC50,second compound 3.16 µM,< 31.6 nM
same,IC50,second compound 10 µM,< 31.6 nM
same,"viability, T/C",[1],111%
same,"viability, T/C",[2],105%
same,"viability, T/C",[3],109%
same,"viability, T/C",[4],126%
same,"viability, T/C",[5],102%
same,"viability, T/C",[6],0.2%
same,"viability, T/C",[7],106%
same,"viability, T/C",[8],114%
same,"viability, T/C",[9],98.5%
same,"viability, T/C",[10],106%
same,"viability, T/C",[11],94.2%
same,"viability, T/C",[12],0.16%
same,"viability, T/C",[13],46%
same,"viability, T/C",[14],45.1%
same,"viability, T/C",[15],50%
same,"viability, T/C",[16],50.1%
same,"viability, T/C",[17],47.5%
same,"viability, T/C",[18],0.75%
same,"viability, T/C",[19],0.54%
same,"viability, T/C",[20],0.36%
same,"viability, T/C",[21],0.62%
same,"viability, T/C",[22],0.47%
same,"viability, T/C",[23],0.48%
same,"viability, T/C",[24],0.1%
same,"viability, T/C",[25],0.13%
same,"viability, T/C",[26],0.15%
same,"viability, T/C",[27],0.17%
same,"viability, T/C",[28],0.16%
same,"viability, T/C",[29],0.14%
same,"viability, T/C",[30],0.11%
same,"viability, T/C",[31],0.21%
same,"viability, T/C",[32],0.19%
same,"viability, T/C",[33],0.21%
same,"viability, T/C",[34],0.24%
same,"viability, T/C",[35],0.25%
same,"viability, T/C",[36],0.21%
CC(CO)NC(=O)c1cc(-c2ccc(Cl)cc2)nn(-c2cnn(C)c2)c1=O (stereo unspecified) + CN1CCN(c2cc(C(=O)Nc3cc4cc(-c5cnn(C)c5)ccc4cn3)ccn2)CC1,IC50,second compound 0.0316 µM,> 10000 nM
same,IC50,second compound 0.1 µM,> 10000 nM
same,IC50,second compound 0.316 µM,< 31.6 nM
same,IC50,second compound 1 µM,< 31.6 nM
same,IC50,second compound 3.16 µM,< 31.6 nM
same,IC50,second compound 10 µM,< 31.6 nM
same,"viability, T/C",[1],109%
same,"viability, T/C",[2],109%
same,"viability, T/C",[3],99.3%
same,"viability, T/C",[4],125%
same,"viability, T/C",[5],109%
same,"viability, T/C",[6],85.6%
same,"viability, T/C",[7],103%
same,"viability, T/C",[8],100%
same,"viability, T/C",[9],94.5%
same,"viability, T/C",[10],114%
same,"viability, T/C",[11],105%
same,"viability, T/C",[12],84.7%
same,"viability, T/C",[13],38.1%
same,"viability, T/C",[14],51.2%
same,"viability, T/C",[15],44.7%
same,"viability, T/C",[16],56.9%
same,"viability, T/C",[17],47.2%
same,"viability, T/C",[18],43.6%
same,"viability, T/C",[19],0.43%
same,"viability, T/C",[20],0.37%
same,"viability, T/C",[21],0.32%
same,"viability, T/C",[22],0.48%
same,"viability, T/C",[23],0.38%
same,"viability, T/C",[24],0.26%
same,"viability, T/C",[25],0.14%
same,"viability, T/C",[26],0.17%
same,"viability, T/C",[27],0.16%
same,"viability, T/C",[28],0.18%
same,"viability, T/C",[29],0.17%
same,"viability, T/C",[30],0.18%
same,"viability, T/C",[31],0.22%
same,"viability, T/C",[32],0.25%
same,"viability, T/C",[33],0.22%
same,"viability, T/C",[34],0.23%
same,"viability, T/C",[35],0.24%
same,"viability, T/C",[36],0.22%
